The record followed here is article PMC7488488 (Acta Pharmaceutica Sinica. B, 2019).

Test [1] concerns the target MDM2 (Homo sapiens, UniProt Q00987). Kind of test: TR-FRET. Particulars: for inhibition at 1 µM: read-out: Inhibition rate at 1.0 μmol/L, MDM2. The class given is binding.
The subject of test [2] is U87MG cells. Kind of test: MTT cell proliferation assay. It is filed as cell-based. Particulars: Homo sapiens, U-87 MG, 24 h, read-out: Anti-proliferative activity IC50, U87MG.
Test [3] concerns U251 cells. Kind of test: MTT cell proliferation assay. The class given is cell-based. Particulars: Homo sapiens, U-251, 24 h, read-out: Anti-proliferative activity IC50, U251.
The subject of test [4] is T98G cells. Kind of test: MTT cell proliferation assay. It is filed as cell-based. Particulars: Homo sapiens, T98G, 24 h, read-out: Anti-proliferative activity IC50, T98G.

Chain of MDM2 (Q00987 whole entry): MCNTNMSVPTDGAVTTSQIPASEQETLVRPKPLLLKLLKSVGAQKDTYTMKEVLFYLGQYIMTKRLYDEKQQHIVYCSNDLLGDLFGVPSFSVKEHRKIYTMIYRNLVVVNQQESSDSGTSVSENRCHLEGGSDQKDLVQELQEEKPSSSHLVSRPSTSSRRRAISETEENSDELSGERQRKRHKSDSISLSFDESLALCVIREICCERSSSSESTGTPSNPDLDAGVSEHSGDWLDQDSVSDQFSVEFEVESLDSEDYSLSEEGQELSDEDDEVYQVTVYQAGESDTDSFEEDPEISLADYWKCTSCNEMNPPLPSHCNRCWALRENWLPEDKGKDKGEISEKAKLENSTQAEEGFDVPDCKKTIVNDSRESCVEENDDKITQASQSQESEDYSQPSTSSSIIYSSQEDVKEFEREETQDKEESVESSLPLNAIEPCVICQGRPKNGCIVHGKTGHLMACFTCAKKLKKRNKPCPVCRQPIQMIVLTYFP

Turning to `CCOC(=O)[C@H]1Cc2c(cc([N+](=O)[O-])cc2[N+](=O)[O-])[C@@H](O)[C@@]12C(=O)Nc1cccc(Br)c12` [4f, Ethyl (1′R,3R,3′S)-4-bromo-1′-hydroxy-5′,7′-dinitro-2-oxo-3′,4′-dihydro-1′H-spiro[indoline-3,2′-naphthalene]-3′-carboxylate], the inhibition at 1 µM in test [1] turned out to be 66.9 ± 9.1%. Also, the half-inhibitory concentration (IC50) in test [2] stood at 20.7 ± 3.5 µM; in test [3] it was 25.8 ± 4.2 µM; in test [4], 27.2 ± 3 µM.
On the same counts, the results for `CCOC(=O)[C@H]1Cc2c(cc([N+](=O)[O-])cc2[N+](=O)[O-])[C@H](O)[C@]12C(=O)Nc1cccc(Br)c12` [4f′, Ethyl (1′S,3S,3′S)-4-bromo-1′-hydroxy-5′,7′-dinitro-2-oxo-3′,4′-dihydro-1′H-spiro[indoline-3,2′-naphthalene]-3′-carboxylate] are 54.8%, 69.8 µM, greater than 50 µM and greater than 50 µM.
`CCOC(=O)[C@H]1Cc2c(cc([N+](=O)[O-])cc2[N+](=O)[O-])[C@@H](O)[C@@]12C(=O)Nc1ccc(Br)cc12` [4g, Ethyl (1′R,3R,3′S)-5-bromo-1′-hydroxy-5′,7′-dinitro-2-oxo-3′,4′-dihydro-1′H-spiro[indoline-3,2′-naphthalene]-3′-carboxylate]: the IC50 was 0.28 ± 0.06 µM in test [1], 4.9 ± 0.5 µM in test [2], 8.6 ± 0.6 µM in test [3] and 9.5 ± 0.7 µM in test [4]. The inhibition at 1 µM in test [1] came out at 92.3 ± 11.2%.
The like results for `CCOC(=O)[C@H]1Cc2c(cc([N+](=O)[O-])cc2[N+](=O)[O-])[C@H](O)[C@]12C(=O)Nc1ccc(Br)cc12` [4g′, Ethyl (1′S,3S,3′S)-5-bromo-1′-hydroxy-5′,7′-dinitro-2-oxo-3′,4′-dihydro-1′H-spiro[indoline-3,2′-naphthalene]-3′-carboxylate] were, in that order, 2.5 ± 0.3 µM, greater than 50 µM, greater than 50 µM, greater than 50 µM and 51.9%.
Regarding `CCOC(=O)[C@H]1Cc2c(cc([N+](=O)[O-])cc2[N+](=O)[O-])[C@@H](O)[C@@]12C(=O)Nc1cc(Br)ccc12` [4h, Ethyl (1′R,3R,3′S)-6-bromo-1′-hydroxy-5′,7′-dinitro-2-oxo-3′,4′-dihydro-1′H-spiro[indoline-3,2′-naphthalene]-3′-carboxylate], in test [1], the inhibition at 1 µM was determined as 76.7 ± 5.2%. Also, the IC50 in test [2] amounted to 20.4 ± 3.3 µM; in test [3], 18.3 ± 1.5 µM; in test [4], 14.4 ± 2.8 µM.
`CCOC(=O)[C@H]1Cc2c(cc([N+](=O)[O-])cc2[N+](=O)[O-])[C@H](O)[C@]12C(=O)Nc1cc(Br)ccc12` [4h′, Ethyl (1′S,3S,3′S)-6-bromo-1′-hydroxy-5′,7′-dinitro-2-oxo-3′,4′-dihydro-1′H-spiro[indoline-3,2′-naphthalene]-3′-carboxylate]: the inhibition at 1 µM in test [1] is 61.2%. Besides, the 50% inhibitory concentration (IC50) in test [2] was 47.6 µM; in test [3] it was greater than 50 µM; in test [4], greater than 50 µM.
For the compound `CCOC(=O)[C@H]1Cc2c(cc([N+](=O)[O-])cc2[N+](=O)[O-])[C@@H](O)[C@@]12C(=O)Nc1ccc([N+](=O)[O-])cc12` [4i, Ethyl (1′R,3R,3′S)-1′-hydroxy-5,5′,7′-trinitro-2-oxo-3′,4′-dihydro-1′H-spiro[indoline-3,2′-naphthalene]-3′-carboxylate], the inhibition at 1 µM in test [1] came to 47.7 ± 4.1%. Besides, the half-inhibitory concentration (IC50) was 25.6 ± 2.8 µM in test [2], 36.2 ± 4.6 µM in test [3] and 41.2 ± 6.1 µM in test [4].
The like results for `CCOC(=O)[C@H]1Cc2c(cc([N+](=O)[O-])cc2[N+](=O)[O-])[C@H](O)[C@]12C(=O)Nc1ccc([N+](=O)[O-])cc12` [4i′, Ethyl (1′S,3S,3′S)-1′-hydroxy-5,5′,7′-trinitro-2-oxo-3′,4′-dihydro-1′H-spiro[indoline-3,2′-naphthalene]-3′-carboxylate] were, in that order, 39.3%, 47.9 µM, greater than 50 µM and greater than 50 µM.
For the compound `CCOC(=O)[C@H]1Cc2c(cc([N+](=O)[O-])cc2[N+](=O)[O-])[C@@H](O)[C@@]12C(=O)Nc1ccc(C)cc12` [4j, Ethyl (1′R,3R,3′S)-1′-hydroxy-5-methyl-5′,7′-dinitro-2-oxo-3′,4′-dihydro-1′H-spiro[indoline-3,2′-naphthalene]-3′-carboxylate], in test [1], the inhibition at 1 µM came to 64.4 ± 7.2%. Besides, the 50% inhibitory concentration (IC50) is 31.1 ± 1.76 µM in test [2], 38.9 ± 4.5 µM in test [3] and 39.3 ± 3.6 µM in test [4].
For the compound `CCOC(=O)[C@H]1Cc2c(cc([N+](=O)[O-])cc2[N+](=O)[O-])[C@H](O)[C@]12C(=O)Nc1ccc(C)cc12` [4j′, Ethyl (1′S,3S,3′S)-1′-hydroxy-5-methyl-5′,7′-dinitro-2-oxo-3′,4′-dihydro-1′H-spiro[indoline-3,2′-naphthalene]-3′-carboxylate], the inhibition at 1 µM in test [1] is 49.2%. The IC50 in test [2], in test [3] and in test [4] was greater than 50 µM each time.
On to `O=C(c1ccccc1)[C@H]1Cc2c(cc([N+](=O)[O-])cc2[N+](=O)[O-])[C@@H](O)[C@@]12C(=O)Nc1ccccc12` [4k, (1′R,3R,3′S)-3′-Benzoyl-1′-hydroxy-5′,7′-dinitro-3′,4′-dihydro-1′H-spiro[indoline-3,2′-naphthalen]-2-one], for which the inhibition at 1 µM in test [1] turned out to be 46.4 ± 4.9%. Also, the IC50 is 38.7 ± 6.5 µM in test [2], 53.8 ± 9 µM in test [3] and 43.7 ± 6.6 µM in test [4].
Turning to `O=C(c1ccccc1)[C@H]1Cc2c(cc([N+](=O)[O-])cc2[N+](=O)[O-])[C@H](O)[C@]12C(=O)Nc1ccccc12` [4k′, (1′S,3S,3′S)-3′-Benzoyl-1′-hydroxy-5′,7′-dinitro-3′,4′-dihydro-1′H-spiro[indoline-3,2′-naphthalen]-2-one], the inhibition at 1 µM in test [1] was 35.4%. The 50% inhibitory concentration (IC50) in test [2], in test [3] and in test [4] was greater than 50 µM each time.
`O=C(c1ccccc1F)[C@H]1Cc2c(cc([N+](=O)[O-])cc2[N+](=O)[O-])[C@@H](O)[C@@]12C(=O)Nc1ccccc12` [4l, (1′R,3R,3′S)-3′-(2-Fluorobenzoyl)-1′-hydroxy-5′,7′-dinitro-3′,4′-dihydro-1′H-spiro[indoline-3,2′-naphthalen]-2-one]: the inhibition at 1 µM in test [1] was 47.2 ± 5.71%. Moreover, the concentration for half-maximal inhibition (IC50) came out at 32.5 ± 4.7 µM in test [2], 38.7 ± 6.1 µM in test [3] and 43.6 ± 4.8 µM in test [4].
The like results for `O=C(c1ccccc1F)[C@H]1Cc2c(cc([N+](=O)[O-])cc2[N+](=O)[O-])[C@H](O)[C@]12C(=O)Nc1ccccc12` [4l′, (1′S,3S,3′S)-3′-(2-Fluorobenzoyl)-1′-hydroxy-5′,7′-dinitro-3′,4′-dihydro-1′H-spiro[indoline-3,2′-naphthalen]-2-one] were, in that order, 31.6%, greater than 50 µM, greater than 50 µM and greater than 50 µM.
As for `O=C(c1ccc(F)cc1)[C@H]1Cc2c(cc([N+](=O)[O-])cc2[N+](=O)[O-])[C@@H](O)[C@@]12C(=O)Nc1ccccc12` [4m, (1′R,3R,3′S)-3′-(4-Fluorobenzoyl)-1′-hydroxy-5′,7′-dinitro-3′,4′-dihydro-1′H-spiro[indoline-3,2′-naphthalen]-2-one], the inhibition at 1 µM in test [1] came to 44.6 ± 3.7%. Moreover, the concentration for half-maximal inhibition (IC50) in test [2] was determined as 47.2 ± 3.8 µM; in test [3], 39.5 ± 3.8 µM; in test [4], 37.1 ± 3.2 µM.
